Results: US10888518B2, “Orodispersible tablet containing estetrol” (ESTETRA SPRL, priority 2015, dated 2021)

Columns and labels:
[1] = test system: human breast cancer cells; conditions: in vitro; cited from earlier work
[2] = Randomized, open-label, two-period, cross-over pharmacokinetic study, sublingual versus oral estetrol; format: in vivo, human; conditions: 10 mg estetrol, healthy female volunteers
Protocol: A randomized, open-label, two-period, cross-over, pharmacokinetic study is conducted to compare sublingual bioavailability of 10 mg estetrol administered in one 80 mg tablet with oral availability of estetrol contained in a 83 mg tablet containing 10 mg estetrol. These tablets are administered sublingually and orally to healthy female volunteers under fasting conditions.
Ten healthy female subjects are selected on the basis of the following criteria: age of 45-65 years (inclusive), nonsmokers or past smokers (at least 6 months before dosing), body-mass index (BMI)=18.5 to 30 kg/m^2 (inclusive at the time of the screening).
At the start of the first and the second period of the study, between 07:00 am and 07:28 am, 5 subjects receive a single dose of the sublingual formulation of estetrol by administering one estetrol tablet (tablet weight 80 mg; 10 mg estetrol) and 5 subjects receive a single oral dose of the oral estetrol formulation by administering one estetrol tablet (tablet weight 83 mg; 10 mg estetrol), ingested together with 200 ml water. […]
The estetrol concentration in the collected blood samples is determined by means of HPLC/MS/MS. The concentrations of glucuronided estetrol (D-ring) in the urine samples is also determined with the help of HPLC/MS/MS.

[3] = test system: vagina, uterus, body weight, bone mass, bone strength, hot flushes, ovulation; conditions: rat models; dose-dependent; cited from earlier work
DMBA mammary tumour = DMBA mammary tumour model; extent and dose level similar to tamoxifen and ovariectomy; cited from earlier work
[4] = humans, cited from earlier work
estrogen receptors = conditions: in vitro; cited from earlier work
[5] = molecular target: T1, sex hormone binding globulin (SHBG) (Homo sapiens, UniProt P04278); conditions: in vitro; cited from earlier work
T1 sequence (P04278 30-402): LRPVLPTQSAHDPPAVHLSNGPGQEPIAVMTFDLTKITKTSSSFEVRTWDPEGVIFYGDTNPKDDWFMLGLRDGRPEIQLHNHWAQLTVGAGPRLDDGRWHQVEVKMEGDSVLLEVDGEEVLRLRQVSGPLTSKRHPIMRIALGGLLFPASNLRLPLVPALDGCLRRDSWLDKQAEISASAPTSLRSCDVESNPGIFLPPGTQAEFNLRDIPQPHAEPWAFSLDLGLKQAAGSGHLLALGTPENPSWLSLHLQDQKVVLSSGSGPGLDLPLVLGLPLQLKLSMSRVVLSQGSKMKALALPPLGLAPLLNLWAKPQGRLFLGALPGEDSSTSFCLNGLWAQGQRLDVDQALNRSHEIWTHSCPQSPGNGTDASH

production of SHBG = conditions: in vitro; cited from earlier work

In the case of `C[C@]12CC[C@@H]3c4ccc(O)cc4CC[C@H]3[C@@H]1[C@@H](O)[C@@H](O)[C@@H]2O` [estetrol, 1,3,5 (10)-estratrien-3,15α,16α,17β-tetrol], the “Effect in the presence of 17β-estradiol” value [1] is given as “anti-estrogenic effect”, the “Bioavailability of sublingually administered estetrol versus orally administered estetrol” value ([2]; 80 mg sublingual tablet vs 83 mg oral tablet, fasting) is given as “comparable or even superior to orally administered estetrol” and the “Impact on a liver function parameter, sublingual versus oral” value ([2]; sublingual) is given as “less impact on a liver function parameter”. The “Estrogenic effects on vagina, uterus, body weight, bone mass, bone strength, hot flushes and ovulation” value [3] was “exhibited estrogenic effects”, the Tumour development (DMBA mammary tumour) was “prevented tumour development” and the Oral bioavailability ([4]; oral) was “high and dose-proportional”. For the same compound, the Terminal elimination half-life [4] was “about 28 hours”, the “Binding selectivity for estrogen receptors” value (estrogen receptors) was “binds highly selective to the estrogen receptors with preference for the ERα form of the receptor” and the “Binding to SHBG” value [5] was “does not bind”. The “Stimulation of the production of SHBG” value (production of SHBG) was “does not stimulate the production of SHBG”.
